Assay results reported in patent US9284274B2, “Chemical derivatives of jasmonate, pharmaceutical compositions and methods of use thereof” (RAMOT AT TEL-AVIV UNIVERSITY LTD., priority 2005, dated 2016).
Read-outs that look alike come from different tables or passages of the source. Each block holds one molecule with its values, some of them ahead of it.

How the values were obtained:
[1] = system: Molt-4 human acute lymphoblastic leukemia cell-line; experiment: Cytotoxicity, XTT Cell Proliferation Kit assay, Molt-4; type: cell-based; conditions: 24 hours; for IC50: XTT; for Cytotoxic effect on leukemic cells (FIG. 1): Molt-4, 0.005-0.5 mM
Description: (§1) Cell densities were as follows: Molt-4 (at 2.5×10^4 cells in 100 μl per well), CT26 (at 5×10^3 cells in 100 μl, per well), MCF7 (at 5×10^3 cells in 100 μL per well) and PBL (at 1.5×10^5 cells in 100 μl per well) seeded in 96-well plates. Adherent cells (CT26 and MCF7) were allowed to adhere over-night.
(§2) Jasmonate-derivatives were added at concentration ranging from 0.005-0.5 mM for 24 hours. Each experimental point was performed in triplicates. Untreated cells were used as control. […] Dilutions were performed in culture medium and ethanol so that the final concentration of ethanol in each well was 0.6%.
(§3) Optical density representing viable cells was determined using the XTT Cell Proliferation Kit assay (Biological industries, Beit-Haemek, Israel).
(§4) Percentage of Optical density is directly proportional to the number of living cells in culture. Cytotoxicity (%) was calculated in the following way: [(OD of control cells−OD of drug-treated cells)/OD of control cells]×100.
(§5) Mononuclear cells were isolated from peripheral blood of healthy donors and treated as described above. The non-adherent PBL were pre-incubated with PHA and TPA as described above. Molt-4 and PBL cells were seeded in 96-well plates as described above.
(§6) Each experimental point was performed in triplicates. Untreated cells were used as control. […] Optical density and percentage of Cytotoxicity were determined as described above.

[2] = system: CT26 murine colon carcinoma cell-line; experiment: Cytotoxicity, XTT Cell Proliferation Kit assay, CT26; type: cell-based; conditions: Mus musculus, 24 hours, read-out: IC50 in CT-26
Description: as §1, §2, §3, §4

[3] = system: MCF7 human breast adenocarcinoma cell-line; experiment: Cytotoxicity, XTT Cell Proliferation Kit assay, MCF7; type: cell-based; conditions: 24 hours, read-out: IC50 in MCF-7
Description: as §1, §2, §3, §4

[4] = system: normal lymphocytes (PBL) from healthy donors stimulated with PHA and TPA; experiment: Cytotoxicity, XTT assay, normal lymphocytes (PBL); type: cell-based; conditions: 24 hours; for IC50: Lymphocyte, XTT, PBL pre-incubated with PHA and TPA; for Cytotoxic effect on normal lymphocytes (FIG. 1): PBL, 0.005-0.5 mM
Description: Mononuclear cells were isolated from peripheral blood of healthy donors by ficoll-hypaque density gradient centrifugation. The mononuclear cells were allowed to adhere to plastic dishes to remove macrophages. The non-adherent peripheral blood lymphocytes (PBL) were pre-incubated with 0.8 μg/mL PHA and 5 ng/mL TPA for 24 hours and then used in further experiments.
as §1, §2, §3, §4, §5, §6

[5] = system: squamous cell carcinoma cells (cell line A431); experiment: Proliferation assay using XTT reagent, squamous cell carcinoma cells; type: cell-based; conditions: A431, three days, read-out: IC50 inhibition of proliferation of squamous cell carcinoma cells
Description: (§7) The effect of methyl jasmonate and compound 9 and 9A on the proliferation of squamous cell carcinoma cells (cell line A431) and basal cell carcinoma cells (cell line TE 354.T) was determined.
(§8) Cells were treated with various concentrations of methyl jasmonate and the compounds 9 and 9A for three days followed by a proliferation assay using XTT reagent (sodium 2,3,-bis(2-methoxy-4-nitro-5-sulfophenyl)-5-[(phenylamino)-carbonyl]-2H-tetrazolium inner salt).

[6] = system: basal cell carcinoma cells (cell line TE 354.T); experiment: Proliferation assay using XTT reagent, basal cell carcinoma cells; type: cell-based; conditions: three days, read-out: IC50 inhibition of proliferation of basal cell carcinoma cells
Description: as §7, §8

lymphomas = conditions: U.S. Pat. No. 6,469,061; cited from earlier work
cancer cells = conditions: Fingrut et al., 2005; cited from earlier work
[7] = system: CXF 1299 colon adeno carcinoma; experiment: Clonogenic assay (TCA), CXF 1299; type: cell-based; conditions: Homo sapiens, CXF 1299, Adeno carcinoma, read-out: IC50 colony formation
Description: (§9) Cancer cells were taken directly from cancer patients, employing the Tumor-Colony-Assay: Solid human tumor xenografts growing subcutaneously in serial passages in thymus aplastic nude mice were removed and disaggregated to obtain isolated tumor cells. Viable cells were added to culture medium supplemented with agar and plated in 24-multiwell dishes. The test compound was applied in the cultures that were incubated at 37° C. for 6-20 days and monitored for colony growth using an inverted microscope. At the time of maximum colony formation, colonies were counted and 24 hours prior to evaluation, stained with a vital dye. Drug effects were expressed in terms of the percentage of colony formation, obtained by comparison of the mean number of colonies in the treated wells with the mean colony count of untreated controls. IC50 values, being the drug concentrations necessary to inhibit colony formation by 50%, were determined by plotting compound concentration versus relative colony count.

[8] = system: CXF 280 colon adeno carcinoma, ud; experiment: Clonogenic assay (TCA), CXF 280; type: cell-based; conditions: Homo sapiens, CXF 280, Adeno carcinoma, read-out: IC50 colony formation
Description: as §9

[9] = system: GXF 214 stomach adeno carcinoma, ud; experiment: Clonogenic assay (TCA), GXF 214; type: cell-based; conditions: Homo sapiens, GXF 214, Adeno carcinoma, read-out: IC50 colony formation
Description: as §9

[10] = system: LXFA 1012 lung, non small, adeno carcinoma, pd; experiment: Clonogenic assay (TCA), LXFA 1012; type: cell-based; conditions: Homo sapiens, LXFA 1012, Adeno carcinoma, read-out: IC50 colony formation
Description: as §9

[11] = system: LXFA 1041 lung, non small, adeno carcinoma, md; experiment: Clonogenic assay (TCA), LXFA 1041; type: cell-based; conditions: Homo sapiens, LXFA 1041, Adeno carcinoma, read-out: IC50 colony formation
Description: as §9

[12] = system: LXFA 629 lung, non small, adeno carcinoma, pd; experiment: Clonogenic assay (TCA), LXFA 629; type: cell-based; conditions: Homo sapiens, LXFA 629, Adeno carcinoma, read-out: IC50 colony formation
Description: as §9

[13] = system: LXFA 749 lung, non small, adeno carcinoma, pd; experiment: Clonogenic assay (TCA), LXFA 749; type: cell-based; conditions: Homo sapiens, LXFA 749, Adeno carcinoma, read-out: IC50 colony formation
Description: as §9

[14] = system: LXFL 430 large cell lung carcinoma, ud; experiment: Clonogenic assay (TCA), LXFL 430; type: cell-based; conditions: Homo sapiens, non small, read-out: IC50 colony formation
Description: as §9

[15] = system: LXFS 573 small cell lung carcinoma; experiment: Clonogenic assay (TCA), LXFS 573; type: cell-based; conditions: Homo sapiens, read-out: IC50 colony formation
Description: as §9

[16] = system: MAXF 1322 breast papillary adeno carcinoma, pd; experiment: Clonogenic assay (TCA), MAXF 1322; type: cell-based; conditions: Homo sapiens, MAXF 1322, Papillary adeno carcinoma, read-out: IC50 colony formation
Description: as §9

[17] = system: MAXF 857 breast invasive ductal carcinoma; experiment: Clonogenic assay (TCA), MAXF 857; type: cell-based; conditions: Homo sapiens, MAXF 857, Invasive ductal carcinoma, read-out: IC50 colony formation
Description: as §9

[18] = system: RXF 1220 kidney hypernephroma, pd; experiment: Clonogenic assay (TCA), RXF 1220; type: cell-based; conditions: Homo sapiens, RXF 1220, Hypernephroma, read-out: IC50 colony formation
Description: as §9

[19] = system: RXF 423 kidney hypernephroid adeno carcinoma; experiment: Clonogenic assay (TCA), RXF 423; type: cell-based; conditions: Homo sapiens, RXF 423, Hypernephroid adeno carcinoma, read-out: IC50 colony formation
Description: as §9

[20] = system: CT-26 colon carcinoma cells; experiment: ATP levels, CellTiter-Glo Luminescent Cell Viability Assay; type: cell-based, Murine
Description: CT-26 cells were exposed to compound 9 for 3 hours and ATP levels were measured using the CellTiter-Glot Luminescent Cell Viability Assay (Promega, Madison, Wis., U.S.A.). […] It thus appears that a drop in cellular energy levels may precipitate the cytotoxic effect of compound 9.

B16F10 melanoma cells = experiment: Experimental metastasis of B16 melanoma cells to the lungs in vivo; parameters: species or system C57bl mice; conditions: 10 mg/kg i.v. once daily, 5 days a week for 3 weeks; lungs weighed after 22 days
Description: The experiment was comprised of 3 groups of C57bl mice (12-15 weeks old, n=12), total of 36 all inoculated with B16F10 melanoma cells, 0.1 ml of B16F10 in PBS×1, inoculums of 7×10^5 cells per mouse. Group M1—non treated, Group M2—treated once daily, 5 days a week for 3 weeks with Compound 9 dissolved with surfactants (10 mg/kg, diluted 1:5 with Saline, i.v.), and Group M3—a positive control group treated with Paclitaxel once in 7 days (15 mg/kg, i.v.). After 22 days, mice were sacrificed and lungs were weighed. Lungs with metastases weigh more than normal lungs (which weigh about 200 mg), and a decrease in lung weight in comparison to control tumor-bearing untreated mice signifies an anti-metastatic effect.

Structure (SMILES): CCC1C(CC2C(=O)CCC2CC(=O)OC)C1(Cl)Cl (centres unmarked) [Compound 7]
- IC50 ([1]; Homo sapiens, MOLT-4): 125 ± 26 µM
- IC50 [2]: 393 ± 141 µM
- IC50 [3]: 323 ± 75 µM
- IC50 [4]: 425 ± 21 µM

Structure (SMILES): CC/C=C\CC1C(=O)CCC1CC(=O)OC1OC(CO)C(O)C(O)C1O (centres unmarked) [Compound 11]
- IC50 ([1]; Homo sapiens, MOLT-4): 79 ± 6 µM
- Cytotoxic effect on leukemic cells (FIG. 1) [1]: kill leukemic cells
- IC50 [2]: 237 ± 29 µM
- IC50 [3]: 110 ± 20 µM
- IC50 [4]: 323 ± 211 µM
- Cytotoxic effect on normal lymphocytes (FIG. 1) [4]: without exerting a substantial effect on normal lymphocytes

Structure (SMILES): CCCCCC1C(=O)CCC1CCO[Si](C)(C)C(C)(C)C (centres unmarked) [Compound 6]
- IC50 ([1]; Homo sapiens, MOLT-4): 56 ± 11 µM
- IC50 [2]: 263 ± 212 µM
- IC50 [3]: 236 ± 180 µM
- IC50 [4]: 90 ± 14 µM

Structure (SMILES): CC/C=C\CC1C(=O)CCC1CC(=O)NC(CC(C)C)C(=O)OC (centres unmarked) [Compound 10]
- IC50 ([1]; Homo sapiens, MOLT-4): 243 ± 39 µM
- IC50 [2]: > 500 µM
- IC50 [4]: > 500 µM

Structure (SMILES): CCCCCC1C(=O)CCC1CC(=O)Oc1cccc2cccnc12 (centres unmarked) [Compound 9A]
- IC50 [1]: 10 µM
- IC50 [5]: 0.036 µM
- IC50 [6]: 0.116 µM

- IC50 ([5]; Homo sapiens, A-431, 72 h): 14 µM
- IC50 ([6]; 72 h): 16 µM
Structure (SMILES): CC/C=C\CC1C(=O)CCC1CC(=O)OC (centres unmarked) [Methyl jasmonate, methyl jasmonate, reference compound]
- Prevention of development of lymphomas in mice (lymphomas): effective in preventing development of lymphomas in mice
- Decrease in ATP levels in cancer cells (cancer cells): can cause a decrease in ATP levels in cancer cells

Structure (SMILES): CC/C=C\CC1C(=O)CCC1CCOC(C)=O (centres unmarked) [Compound 2]
- IC50 ([1]; Homo sapiens, MOLT-4): 440 ± 109 µM
- IC50 [2]: > 500 µM
- IC50 [3]: > 500 µM
- IC50 [4]: > 500 µM

Structure (SMILES): CC/C=C\CC1C(=O)CCC1CC(=O)Oc1cccc2cccnc12 (centres unmarked) [Compound 9]
- IC50 ([1]; Homo sapiens, MOLT-4): 12 ± 9 µM
- Cytotoxic effect on leukemic cells (FIG. 1) [1]: kill leukemic cells
- IC50 [2]: 29 ± 21 µM
- IC50 [3]: 60 ± 14 µM
- IC50 [4]: 200 ± 85 µM
- Cytotoxic effect on normal lymphocytes (FIG. 1) [4]: without exerting a substantial effect on normal lymphocytes
- IC50 [7]: 1.12 µM
- IC50 [8]: 5.44 µM
- IC50 [9]: 1.94 µM
- IC50 [10]: 1.32 µM
- IC50 [11]: 1.5 µM
- IC50 [12]: 1.38 µM
- IC50 [13]: 1.7 µM
- IC50 [14]: < 1 µM
- IC50 [15]: 1.93 µM
- IC50 [16]: 1.55 µM
- IC50 [17]: 1.55 µM
- IC50 [18]: 6.32 µM
- IC50 [19]: 1.69 µM
- Drop in cellular ATP levels (FIG. 2) ([20]; 3 hours exposure, 0.2 or 0.5 mM compound): induced a significant drop in cellular ATP levels
- Effect of high glucose on the ATP drop (FIG. 2) ([20]; 3 hours, high (28 mM) versus low (2 mM) glucose): this effect was decreased in the presence of high glucose levels
- Suppression of lung metastasis (lung weight, FIG. 3) (B16F10 melanoma cells): very effective in suppressing lung metastasis
- IC50 ([5]; Homo sapiens, A-431, 72 h): 0.089 µM
- IC50 ([6]; 72 h): 0.049 µM

Structure (SMILES): CCC(Br)C(Br)CC1C(=O)CCC1CCO (centres unmarked) [Compound 8]
- IC50 ([1]; Homo sapiens, MOLT-4): 50 ± 28 µM
- IC50 [2]: 163 ± 42 µM
- IC50 [3]: 120 ± 60 µM
- IC50 [4]: 60 ± 14 µM
